# Assay results: ChEMBL document CHEMBL1275573, “Inhibition of herpesvirus replication by hexadecyloxypropyl esters of purine- and pyrimidine-based phosphonomethoxyethyl nucleoside phosphonates” (Antimicrob Agents Chemother, 2008)
# pEC50, pIC50: −log10 of the molar value.
# How the values were obtained:
# [1] = Cytotoxicity against human HFF cells after 7 days by neutral red dye method; format: cell-based
# [2] = Cytotoxicity against human HFF cells; format: cell-based
# [3] = tested on: Daudi; assay: Cytotoxicity against human Daudi cell after 4 hrs by MTS assay; format: functional
# [4] = Cytotoxicity against human HSB2 cell after 4 hrs by MTS assay; format: functional; conditions: CCRF-HSB-2, 4 h
# [5] = tested on: MOLT-3; assay: Cytotoxicity against human MOLT3 cell after 4 hrs by MTS assay; format: functional; conditions: MOLT-3, 4 h
# [6] = tested on: Human alphaherpesvirus 1; assay: Antiviral activity against herpes simplex virus 1 E-377 infected in HFF cells by plaque reduction assay; format: functional, organism-based; conditions: Human alphaherpesvirus 1, E-377, HFF
# [7] = Selectivity index, ratio of EC50 for herpes simplex virus type 1 E-377 to CC50 for human HFF cell
# [8] = tested on: Human alphaherpesvirus 2; assay: Antiviral activity against herpes simplex virus 2 MS infected in HFF cells by plaque reduction assay; format: functional, organism-based; conditions: Human alphaherpesvirus 2, MS
# [9] = Selectivity index, ratio of EC50 for herpes simplex virus type 2 MS to CC50 for human HFF cell
# [10] = tested on: Human alphaherpesvirus 3; assay: Antiviral activity against Varicella zoster virus Ellen infected in HFF cells by plaque reduction assay; format: functional, organism-based; conditions: Human alphaherpesvirus 3, Ellen
# [11] = tested on: Human betaherpesvirus 5; assay: Antiviral activity against Human cytomegalovirus AD169 infected in HFF cells by plaque reduction assay; format: functional, organism-based; conditions: Human betaherpesvirus 5, AD169, HFF
# [12] = Antiviral activity against Murine cytomegalovirus Smith infected in HFF cells by plaque reduction assay; format: functional, cell-based, Murine cytomegalovirus (strain Smith); conditions: Murid betaherpesvirus 1, HFF
# [13] = Selectivity index, ratio of EC50 for Murine cytomegalovirus Smith to CC50 for human HFF cell
# [14] = Antiviral activity against Epstein-Barr virus p3hr-1 infected in human daudi cells; format: functional, cell-based, Epstein-barr virus strain p3hr-1; conditions: human gammaherpesvirus 4, Daudi
# [15] = Selectivity index, ratio of EC50 for Epstein-Barr virus P3HR-1 to CC50 for human daudi cell
# [16] = Antiviral activity against Human herpesvirus 6A GS infected in human HSB-2 cells; format: functional, cell-based; conditions: Human betaherpesvirus 6A, HSB2
# [17] = Antiviral activity against Human herpesvirus 6B Z29 infected in human MOLT-3 cells; format: functional, cell-based; conditions: Human betaherpesvirus 6B, Z29, MOLT-3
# [18] = Selectivity index, ratio of EC50 for Human herpesvirus 6B Z29 to CC50 for human MOLT-3 cells
SMILES,CC50 at 168 h [1],CC50 [2],CC50 [3],CC50 [4],CC50 [5],pEC50 [6],Selectivity Index [7],pEC50 [8],Selectivity Index [9],pEC50 [10],pEC50 [11],pEC50 [12],Selectivity Index [13],pEC50 [14],Selectivity Index [15],pEC50 [16],pEC50 [17],Selectivity Index [18],pIC50 [16]
Nc1nc(NC2CC2)c2ncn(CCOCP(=O)(O)O)c2n1,> 100 µM,150 µM,20 µM,3 µM,8.5 µM,5.40,>25,5.10,>13,6.10,6.40,> 7.22,>1700,7.00,200,6.00,5.19,1,–
CCCCCCCCCCCCCCCCOCCCOP(=O)(O)COCCn1cnc2c(NC3CC3)nc(N)nc21,110 µM,26 µM,> 50 µM,0.05 µM,0.3 µM,7.00,1100,6.70,550,7.52,7.70,> 7.52,>3700,9.15,>71000,7.30,7.30,6,–
Nc1nc(=O)n(CCOCP(=O)(O)O)cc1Br,> 300 µM,200 µM,27 µM,3.9 µM,84 µM,< 4.22,>5,< 4.22,>5,4.42,< 4.70,< 4.70,<150,4.62,1.1,< 4.30,< 4.33,<2,–
Nc1ccn(CCOCP(=O)(O)O)c(=O)n1,> 300 µM,220 µM,> 100 µM,> 50 µM,> 50 µM,< 3.52,1,< 3.52,1,< 3.52,< 4.70,4.20,>480,< 4.39,<2.4,–,< 4.30,1,< 4.30
Nc1nc(=O)n(CCOCP(=O)(O)O)cc1F,–,220 µM,–,> 41 µM,> 50 µM,–,–,–,–,–,< 4.70,4.11,2.8,< 4.30,–,< 4.30,< 4.30,1,–
CCCCCCCCCCCCCCCCOCCCOP(=O)(O)COCCn1cnc2c(N)nc(N)nc21,120 µM,170 µM,> 50 µM,6.4 µM,51 µM,6.22,200,6.40,300,6.52,6.30,6.30,240,6.10,>63,5.70,4.47,1,–
Nc1nc(N)c2ncn(CCOCP(=O)(O)O)c2n1 [PMEDAP],> 100 µM,170 µM,> 50 µM,> 56 µM,39 µM,< 5.00,>10,< 5.00,>10,5.54,4.89,6.70,>500,5.92,>42,4.82,4.55,1,–
CCCCCCCCCCCCCCCCOCCCOP(=O)(O)COCCn1ccc(N)nc1=O,> 300 µM,200 µM,> 100 µM,> 50 µM,> 50 µM,3.59,>1.1,4.46,>9,< 3.52,< 4.70,< 4.70,<150,< 4.30,<2,< 4.30,< 4.30,1,–
CCCCCCCCCCCCCCCCOCCCOP(=O)(O)COCCn1cc(Br)c(N)nc1=O,> 300 µM,35 µM,> 100 µM,> 41 µM,> 50 µM,5.92,>250,4.74,>17,4.38,5.32,5.89,>230,7.52,>3400,4.42,< 4.35,1,–
CCCCCCCCCCCCCCCCOCCCOP(=O)(O)COCCn1cc(F)c(N)nc1=O,35 µM,33 µM,> 100 µM,22.6 µM,> 50 µM,< 4.92,<3,< 4.92,<3,5.59,5.70,7.10,440,5.89,>77,5.14,4.43,>1,–
